In US20250009742A1 (priority 2021, published 2025):

Experiments:
intracellular HBV DNA = test: Real-time PCR for intracellular HBV DNA in HepAD38 cells; assay type: cell-based; details: Hepatitis B virus, HePAD38, 65 h, 65 hours treatment
[1] = Cell viability assay (EZ-Cytox), cytotoxicity; assay type: cell-based; details: human, HepAD38 cells; for viability at 65 h, 100 µM: read-out: Cytotoxicity % Livability (@100 μM)
Protocol: HepAD38 cells were cultured for 2 days in Dulbecco's Modified Eagle's medium (Welgene, LM001-05) supplemented with 10% FBS without tetracycline. […] After 65 hours of treatment, viability was measured using EZ-Cytox cell viability assay kit (Daeil Lab Service) according to the manufacturer's instructions. The absorbance was measured at 450 nm using a spectrophotometer (Spark, Tecan).

Structure (SMILES): COc1ncc(N(Cc2cc(C(F)(F)F)[nH]n2)C(=O)Nc2ccc(F)c(Cl)c2)cc1C#N [Example 119, 3-(3-chloro-4-fluorophenyl)-1-(5-cyano-6-methoxypyridin-3-yl)-1-((5-(trifluoromethyl)-1H-pyrazol-3-yl)methyl)urea]
- IC50 (intracellular HBV DNA): 320 nM
- CC50 at 65 h [1]: < 50000 nM
- viability at 65 h, 100 µM [1]: 18.8%

Structure (SMILES): N#Cc1cncc(N(Cc2n[nH]c3c2CCCO3)C(=O)Nc2ccc(F)c(Cl)c2)c1 [Example 120, 3-(3-chloro-4-fluorophenyl)-1-(5-cyanopyridin-3-yl)-1-((1,4,5,6-tetrahydropyrano[2,3-c]pyrazol-3-yl)methyl)urea]
- IC50 (intracellular HBV DNA): 95 nM
- CC50 at 65 h [1]: > 100000 nM
- viability at 65 h, 100 µM [1]: 92%

Structure (SMILES): N#Cc1cc(N(Cc2n[nH]c3c2CCCO3)C(=O)Nc2ccc(F)c(Cl)c2)ccn1 [Example 122, 3-(3-chloro-4-fluorophenyl)-1-(2-cyanopyridin-4-yl)-1-((1,4,5,6-tetrahydropyrano[2,3-c]pyrazol-3-yl)methyl)urea]
- IC50 (intracellular HBV DNA): 350 nM
- CC50 at 65 h [1]: > 100000 nM

Structure (SMILES): N#Cc1ccc(N(Cc2n[nH]c3c2COCC3)C(=O)Nc2ccc(F)c(Cl)c2)cn1 [Example 125, 3-(3-chloro-4-fluorophenyl)-1-(6-cyanopyridin-3-yl)-1-((1,4,6,7-tetrahydropyrano[4,3-c]pyrazol-3-yl)methyl)urea]
- IC50 (intracellular HBV DNA): 230 nM
- CC50 at 65 h [1]: > 100000 nM
- viability at 65 h, 100 µM [1]: 109%

Structure (SMILES): N#Cc1ccc(N(Cc2n[nH]c3c2CCOC3)C(=O)Nc2ccc(F)c(Cl)c2)cn1 [Example 127, 3-(3-chloro-4-fluorophenyl)-1-(6-cyanopyridin-3-yl)-1-((1,4,5,7-tetrahydropyrano[3,4-c]pyrazol-3-yl)methyl)urea]
- IC50 (intracellular HBV DNA): 510 nM
- CC50 at 65 h [1]: > 100000 nM
- viability at 65 h, 100 µM [1]: 95%

Structure (SMILES): N#Cc1cc(N(Cc2n[nH]c3c2CCOC3)C(=O)Nc2ccc(F)c(Cl)c2)ccn1 [Example 128, 3-(3-chloro-4-fluorophenyl)-1-(2-cyanopyridin-4-yl)-1-((1,4,5,7-tetrahydropyrano[3,4-c]pyrazol-3-yl)methyl)urea]
- IC50 (intracellular HBV DNA): 340 nM
- CC50 at 65 h [1]: > 100000 nM
- viability at 65 h, 100 µM [1]: 65.9%

Structure (SMILES): N#Cc1cncc(N(Cc2n[nH]c3c2COCC3)C(=O)Nc2ccc(F)c(Cl)c2)c1 [Example 129, 3-(3-chloro-4-fluorophenyl)-1-(5-cyanopyridin-3-yl)-1-((1,4,6,7-tetrahydropyrano[4,3-c]pyrazol-3-yl)methyl)urea]
- IC50 (intracellular HBV DNA): 60 nM
- CC50 at 65 h [1]: > 100000 nM
- viability at 65 h, 100 µM [1]: 93.1%

Structure (SMILES): N#Cc1ccc(N(Cc2cc(C(F)(F)F)[nH]n2)C(=O)Nc2ccc(F)c(Cl)c2)cn1 [Example 130, 3-(3-chloro-4-fluorophenyl)-1-(6-cyanopyridin-3-yl)-1-((5-(trifluoromethyl)-1H-pyrazol-3-yl)methyl)urea]
- IC50 (intracellular HBV DNA): 65 nM
- CC50 at 65 h [1]: > 100000 nM
- viability at 65 h, 100 µM [1]: 68%

Structure (SMILES): O=C(Nc1ccc(F)c(Cl)c1)N(Cc1n[nH]c2c1CCCO2)c1cc[nH]n1 [Example 135, 3-(3-chloro-4-fluorophenyl)-1-(1H-pyrazol-3-yl)-1-((1,4,5,6-tetrahydropyrano[2,3-c]pyrazol-3-yl)methyl)urea]
- IC50 (intracellular HBV DNA): 200 nM
- CC50 at 65 h [1]: > 100000 nM

Structure (SMILES): O=C(Nc1ccc(F)c(Cl)c1)N(Cc1n[nH]c2c1CCCO2)c1ccon1 [Example 136, 3-(3-chloro-4-fluorophenyl)-1-(isoxazol-3-yl)-1-((1,4,5,6-tetrahydropyrano[2,3-c]pyrazol-3-yl)methyl)urea]
- IC50 (intracellular HBV DNA): 48 nM
- CC50 at 65 h [1]: 64000 nM
- viability at 65 h, 100 µM [1]: 7.3%

Structure (SMILES): COc1ncc(N(Cc2cc(C(F)(F)F)[nH]n2)C(=O)Nc2cc(N(C)C)c(F)c(Cl)n2)cn1 [Example 138, 3-(6-chloro-4-(dimethylamino)-5-fluoropyridin-2-yl)-1-(2-methoxypyrimidin-5-yl)-1-((5-(trifluoromethyl)-1H-pyrazol-3-yl)methyl)urea]
- IC50 (intracellular HBV DNA): > 1100 nM
- CC50 at 65 h [1]: > 100000 nM
- viability at 65 h, 100 µM [1]: 71.9%

Structure (SMILES): COc1ncc(N(Cc2cc(C(F)(F)F)[nH]n2)C(=O)Nc2cc(C)c(F)c(Cl)n2)cn1 [Example 142, 3-(6-chloro-5-fluoro-4-methylpyridin-2-yl)-1-(2-methoxypyrimidin-5-yl)-1-((5-(trifluoromethyl)-1H-pyrazol-3-yl)methyl)urea]
- IC50 (intracellular HBV DNA): 100 nM
- CC50 at 65 h [1]: 46900 nM
- viability at 65 h, 100 µM [1]: 21%

Structure (SMILES): COc1ncc(N(Cc2cc(C(F)(F)F)[nH]n2)C(=O)Nc2cccc(C#N)c2)cn1 [Example 144, 3-(3-cyanophenyl)-1-(2-methoxypyrimidin-5-yl)-1-((5-(trifluoromethyl)-1H-pyrazol-3-yl)methyl)urea]
- IC50 (intracellular HBV DNA): 220 nM
- CC50 at 65 h [1]: 59900 nM
- viability at 65 h, 100 µM [1]: 6.3%

Structure (SMILES): COc1ncc(N(Cc2cc(C(F)(F)F)[nH]n2)C(=O)Nc2cccc(C#N)n2)cn1 [Example 145, 3-(6-cyanopyridin-2-yl)-1-(2-methoxypyrimidin-5-yl)-1-((5-(trifluoromethyl)-1H-pyrazol-3-yl)methyl)urea]
- IC50 (intracellular HBV DNA): > 1100 nM
- CC50 at 65 h [1]: > 100000 nM
- viability at 65 h, 100 µM [1]: 99.4%

Structure (SMILES): COc1ncc(N(Cc2cc(C(F)(F)F)[nH]n2)C(=O)Nc2ccnc(C#N)c2)cn1 [Example 146, 3-(2-cyanopyridin-4-yl)-1-(2-methoxypyrimidin-5-yl)-1-((5-(trifluoromethyl)-1H-pyrazol-3-yl)methyl)urea]
- IC50 (intracellular HBV DNA): 120 nM
- CC50 at 65 h [1]: > 100000 nM
- viability at 65 h, 100 µM [1]: 112%

Structure (SMILES): COc1ncc(N(Cc2cc(C(F)(F)F)[nH]n2)C(=O)Nc2cc(F)c(F)c(C#N)n2)cn1 [Example 151, 3-(6-cyano-4,5-difluoropyridin-2-yl)-1-(2-methoxypyrimidin-5-yl)-1-((5-(trifluoromethyl)-1H-pyrazol-3-yl)methyl)urea]
- IC50 (intracellular HBV DNA): > 1100 nM
- CC50 at 65 h [1]: > 100000 nM
- viability at 65 h, 100 µM [1]: 87.4%

Structure (SMILES): COc1ncc(N(Cc2cc(C(F)(F)F)[nH]n2)C(=O)Nc2ccc(C#N)c(C(F)F)c2)cn1 [Example 152, 3-(4-cyano-3-(difluoromethyl)phenyl)-1-(2-methoxypyrimidin-5-yl)-1-((5-(trifluoromethyl)-1H-pyrazol-3-yl)methyl)urea]
- IC50 (intracellular HBV DNA): 26 nM
- CC50 at 65 h [1]: > 100000 nM
- viability at 65 h, 100 µM [1]: 82.7%

Structure (SMILES): COc1ncc(N(Cc2cc(C#N)[nH]n2)C(=O)Nc2ccc(C#N)c(C(F)F)c2)cn1 [Example 153, 1-((5-cyano-1H-pyrazol-3-yl)methyl)-3-(4-cyano-3-(difluoromethyl)phenyl)-1-(2-methoxypyrimidin-5-yl)urea]
- IC50 (intracellular HBV DNA): 210 nM
- CC50 at 65 h [1]: > 100000 nM
- viability at 65 h, 100 µM [1]: 94.2%

Structure (SMILES): COc1ncc(N(Cc2cc(C(F)(F)F)[nH]n2)C(=O)Nc2ccc(F)c(C#N)c2)cn1 [Example 154, 3-(3-cyano-4-fluorophenyl)-1-(2-methoxypyrimidin-5-yl)-1-((5-(trifluoromethyl)-1H-pyrazol-3-yl)methyl)urea]
- IC50 (intracellular HBV DNA): 13 nM
- CC50 at 65 h [1]: > 100000 nM
- viability at 65 h, 100 µM [1]: 73%

Structure (SMILES): COc1ncc(N(Cc2cc(C(F)F)[nH]n2)C(=O)Nc2ccc(F)c(C#N)c2)cn1 [Example 155, 3-(3-cyano-4-fluorophenyl)-1-((5-(difluoromethyl)-1H-pyrazol-3-yl)methyl)-1-(2-methoxypyrimidin-5-yl)urea]
- IC50 (intracellular HBV DNA): 35 nM
- CC50 at 65 h [1]: > 100000 nM
- viability at 65 h, 100 µM [1]: 97%

Structure (SMILES): COc1ncc(N(Cc2cc(C(F)(F)F)[nH]n2)C(=O)Nc2ccc(C#N)c(F)c2)cn1 [Example 156, 3-(4-cyano-3-fluorophenyl)-1-(2-methoxypyrimidin-5-yl)-1-((5-(trifluoromethyl)-1H-pyrazol-3-yl)methyl)urea]
- IC50 (intracellular HBV DNA): 83 nM
- CC50 at 65 h [1]: > 100000 nM
- viability at 65 h, 100 µM [1]: 107%

Structure (SMILES): COc1cc(N(Cc2cc(C(F)(F)F)[nH]n2)C(=O)Nc2ccc(F)c(C#N)c2)cnn1 [Example 163, 3-(3-cyano-4-fluorophenyl)-1-(6-methoxypyridazin-4-yl)-1-((5-(trifluoromethyl)-1H-pyrazol-3-yl)methyl)urea]
- IC50 (intracellular HBV DNA): 7 nM
- CC50 at 65 h [1]: > 100000 nM
- viability at 65 h, 100 µM [1]: 99%

Structure (SMILES): COc1ncc(N(Cc2cc(C(F)(F)F)[nH]n2)C(=O)Nc2cc(N(C)C)c(F)c(C#N)n2)cn1 [Example 164, 3-(6-cyano-4-(dimethylamino)-5-fluoropyridin-2-yl)-1-(2-methoxypyrimidin-5-yl)-1-((5-(trifluoromethyl)-1H-pyrazol-3-yl)methyl)urea]
- IC50 (intracellular HBV DNA): > 1100 nM
- CC50 at 65 h [1]: > 100000 nM
- viability at 65 h, 100 µM [1]: 100%

Structure (SMILES): COc1ccc(N(Cc2cc(C(F)(F)F)[nH]n2)C(=O)Nc2ccc(F)c(F)c2)cn1 [Example 168, 3-(3,4-difluorophenyl)-1-(6-methoxypyridin-3-yl)-1-((5-(trifluoromethyl)-1H-pyrazol-3-yl)methyl)urea]
- IC50 (intracellular HBV DNA): 73 nM
- CC50 at 65 h [1]: > 100000 nM
- viability at 65 h, 100 µM [1]: 59.8%

Structure (SMILES): COc1ncc(N(Cc2cc(C(F)(F)F)[nH]n2)C(=O)Nc2cc(F)c(F)cn2)cn1 [Example 172, 3-(4,5-difluoropyridin-2-yl)-1-(2-methoxypyrimidin-5-yl)-1-((5-(trifluoromethyl)-1H-pyrazol-3-yl)methyl)urea]
- IC50 (intracellular HBV DNA): 240 nM
- CC50 at 65 h [1]: > 100000 nM

Structure (SMILES): COc1ncc(N(Cc2cc(C(F)(F)F)[nH]n2)C(=O)Nc2nccc(F)c2F)cn1 [Example 173, 3-(3,4-difluoropyridin-2-yl)-1-(2-methoxypyrimidin-5-yl)-1-((5-(trifluoromethyl)-1H-pyrazol-3-yl)methyl)urea]
- IC50 (intracellular HBV DNA): > 1100 nM
- CC50 at 65 h [1]: > 100000 nM

Structure (SMILES): COc1ncc(N(Cc2cc(C(F)(F)F)[nH]n2)C(=O)Nc2cncc(C(F)F)c2)cn1 [Example 174, 3-(5-(difluoromethyl)pyridin-3-yl)-1-(2-methoxypyrimidin-5-yl)-1-((5-(trifluoromethyl)-1H-pyrazol-3-yl)methyl)urea]
- IC50 (intracellular HBV DNA): 480 nM
- CC50 at 65 h [1]: > 100000 nM
- viability at 65 h, 100 µM [1]: 96.2%
